pIC50: −log10 of the molar value.

Sequence of human recombinant H-PGDS (O60760 whole entry): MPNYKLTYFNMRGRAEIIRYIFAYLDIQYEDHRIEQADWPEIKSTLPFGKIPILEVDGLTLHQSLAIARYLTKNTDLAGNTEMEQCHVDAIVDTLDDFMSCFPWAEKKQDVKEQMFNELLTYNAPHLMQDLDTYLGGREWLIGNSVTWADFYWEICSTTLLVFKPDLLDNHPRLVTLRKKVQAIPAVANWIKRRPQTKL

In the assay the target is human recombinant H-PGDS (Homo sapiens, UniProt O60760). Briefly: Fluorescence intensity h-PGDS TBA enzyme assay (PGH2 depletion, MDA/TBA fluorescence). Type of assay: biochemical. The conditions noted are these: 1:175,000 human recombinant H-PGDS, 42 second reaction, 3-fold serial dilutions, highest concentration typically 1 μM. The procedure:
Fluoresecence Intensity h-PGDSTBA Enzyme Assay
Prostaglandin D Synthase (PGDS) converts the substrate prostaglandin H2 (PGH2) to prostaglandin D2. The depletion of PGH2 was measured via an Fe(II) reduction of the remaining PGH2 to malondialdehyde (MDA) and 12-HHT. The enzyme assay is based on the quantitative formation of a fluorescent complex from the non-fluorescent compounds MDA and 2-thiobarbituric acid (TBA), substantially as described in U.S. patent application publication US-2004/152148 by Lombardt.
The enzyme assay (31 μls) contained 100 mM Tris base pH 8.0, 100 μM MgCl2, 0.1 mg/ml IgG Rabbit serum, 5.0 μM PGH2 (Cayman; ethanol solution, #17020), 2.5 mM L-Glutathione (Sigma; reduced form. #G4251), 1:175,000 human recombinant H-PGDS (from 1 mg/ml), 0.5% DMSO and inhibitor (varying concentration). Three μls of diluted inhibitor (dissolved in DMSO) was plated into a 384-well assay plate followed by a 25 μl addition of an enzyme solution containing h-PGDS, Tris, MgCl2, IgG and L-Glutathione. After preincubation of inhibitor and enzyme solution for 10 minutes at room temperature, the reaction was initiated with a 3 μl addition of substrate solution in 10 mM HCl. The reaction was terminated after 42 second by the addition (3 μl) of stop buffer containing FeCl2 and citric acid. After addition of 45.5 μls of TBA plates were heated for one hour in a 70° C. oven. Plates were cooled at room temperature overnight and read on a plate reader the next day with excitation @ 530 nm and emission @ 565 nm.
IC50' s of inhibitors were calculated with a 4-parameter fit using 11 inhibitor concentrations in duplicate with 3-fold serial dilutions. Controls on each plate included no inhibitor (zero % effect) and an inhibitor 10-fold in excess of its' IC50 (100% effect). The highest inhibitor concentration tested was typically 1 μM.
On to `CNCCNC(=O)[C@H]1CCC[C@@H](NC(=O)c2ccc(-c3cccc(F)c3)nc2)C1` (relative stereo) [Example 189, 6-(3-Fluorophenyl)-N-cis-3-{([2-(methylamino)ethyl]carbamoyl}cyclohexyl]nicotinamide], for which the pIC50 was 7.86.

Take `O=C(NC1CCC(O)(CO)CC1)c1ccc(-c2cccc(F)c2)nc1` (stereo not drawn) [Example 227, 6-(3-Fluorophenyl)-N-[4-hydroxy-4-(hydroxymethyl)cyclohexyl]nicotinamide]: the pIC50 is 7.62. With `CC(C)(CO)NC(=O)[C@H]1CCC[C@@H](NC(=O)c2ccc(-c3cccc(F)c3)nc2)C1` (relative stereo) [Example 196] the figure was 8.02; with `COC(=O)C1(NC(=O)c2ccc(-c3ccc(F)cc3)nc2)CC1` [Example 5], no more than 6.00.

`O=C(NC1CCCc2ccccc21)c1ccc(-c2cccc(F)c2)nc1` (stereo not drawn) [Example 122, 6-(3-Fluorophenyl)-N-(1,2,3,4-tetrahydronaphthalen-1-yl)nicotinamide]: the pIC50 is 8.38. `CN1CCN(C(=O)[C@@]2(C)CCC[C@@H](NC(=O)c3ccc(-c4cccc(F)c4)nc3)C2)CC1` [Example 230, 6-(3-Fluorophenyl)-N-{(1R,3S)-3-methyl-3-[(4-methylpiperazin-1-yl)carbonyl]cyclohexyl}nicotinamide]: the negative logarithm of the IC50 (pIC50) is 7.43.

`CN(C)CC(=O)NC[C@H]1CCC[C@@H](NC(=O)c2ccc(-c3cccc(F)c3)nc2)C1` (relative stereo) [Example 253]: the pIC50 was 7.29. With `O=C(NC1CCCCC1O)c1ccc(-c2cccc(F)c2)nc1` (stereo not drawn) [Example 17, 6-(3-Fluorophenyl)-N-(2-hydroxycyclohexyl)nicotinamide], the pIC50 is 8.54. As for `CN(C(=O)[C@H]1CC[C@H](NC(=O)c2ccc(-c3cccc(F)c3)nc2)CC1)C1CCNCC1` [Example 211, 6-(3-Fluorophenyl)-N-{trans-4-[methyl(piperidin-4-yl)carbamoyl]cyclohexyl}nicotinamide], the figure is 7.89.

For the molecule `COC(=O)C1(NC(=O)c2ccc(-c3cccc(OC)c3)nc2)CC1` [Example 4, Methyl 1-({[6-(3-methoxyphenyl)pyridin-3-yl]carbonyl}amino)cyclopropanecarboxylate], the pIC50 is no more than 6.00. As for `CCC(O)[C@H]1CC[C@H](NC(=O)c2ccc(-c3cccc(F)c3)nc2)CC1` (stereo partly drawn) [Example 214, 6-(3-Fluorophenyl)-N-[trans-4-(1-hydroxypropyl)cyclohexyl]nicotinamide], the figure is 8.52. With `O=C(N[C@H]1CC[C@@H](C(=O)N2CC[C@@H](F)C2)C1)c1ccc(-c2cccc(F)c2)nc1` [Example 161, 6-(3-fluorophenyl)-N-[(1S,3R)-3-{[(3R)-3-fluoropyrrolidin-1-yl]carbonyl}cyclopentyl]nicotinamide], the pIC50 was 8.39.

For the molecule `COCC(=O)N[C@@H]1CCC[C@H](NC(=O)c2ccc(-c3cccc(F)c3)nc2)C1` (relative stereo) [Example 203, 6-(3-Fluorophenyl)-N-cis-[3-(2-methoxyacetylamino)cyclohexyl]nicotinamide], the pIC50 was 7.77. With `CC(C)(O)[C@H]1CC[C@@H](NC(=O)c2ccc(-c3cccc(F)c3)nc2)C1` [Example 166, 6-(3-Fluorophenyl)-N-[(1R,3S)-3-(1-hydroxy-1-methylethyl)cyclopentyl]nicotinamide] the figure was 7.45. `O=C(N[C@H]1CC[C@H]([C@H](O)C2CC2)CC1)c1ccc(-c2cccc(F)c2)nc1` [Example 212, N-[4-trans-((R)-Cyclopropylhydroxymethyl)cyclohexyl]-6-(3-fluorophenyl)nicotinamide]: the pIC50 is 8.64.

For `C[C@]1(C(=O)O)CCC[C@@H](NC(=O)c2ccc(-c3cccc(F)c3)nc2)C1` (relative stereo) [Example 231, (1S*,3R*)-3-({[6-(3-Fluorophenyl)pyridin-3-yl]carbonyl}amino)-1-methylcyclohexane carboxylic acid], the pIC50 was 7.86. As for `NC1CCN(C(=O)[C@H]2CC[C@@H](NC(=O)c3ccc(-c4cccc(F)c4)nc3)C2)CC1` [Example 187], the figure is 7.51. On to `O=C(NC1CCC(F)(F)CC1)c1ccc(-c2cccc(F)c2)nc1` [Example 119, N-(4,4-Difluorocyclohexyl)-6-(3-fluorophenyl)nicotinamide], for which the negative-log IC50 (pIC50) was 8.89. With `COCCNC(=O)[C@H]1CC[C@H](NC(=O)c2ccc(-c3cccc(F)c3)nc2)CC1` [Example 113I, 6-(3-fluorophenyl)-N-{trans-4-[(2-methoxyethyl)carbamoyl]cyclohexyl}nicotinamide] the figure was 7.98; with `CN(C)C(=O)[C@@H]1CC[C@H](NC(=O)c2ccc(-c3cccc(F)c3)nc2)C1` [Example 163, N-[(1S,3R)-3-(Dimethylcarbamoyl)cyclopentyl]-6-(3-fluorophenyl)nicotinamide], 8.21. With `CN1CCC(NC(=O)[C@@H]2CC[C@H](NC(=O)c3ccc(-c4cccc(F)c4)nc3)C2)CC1` [Example 174, 6-(3-Fluorophenyl)-N-{(1S,3R)-3-[(1-methylpiperidin-4-yl)carbamoyl]cyclopentyl}nicotinamide] the figure was 5.73; with `O=C(N[C@H]1CC[C@H](C(=O)NCCCO)CC1)c1ccc(-c2cccc(F)c2)nc1` [Example 113G, 6-(3-fluorophenyl)-N-{trans-4-[(3-hydroxypropyl)carbamoyl]cyclohexyl}nicotinamide], 8.35; with `CC(=O)NC(C)(C)[C@H]1CC[C@H](NC(=O)c2ccc(-c3cccc(F)c3)nc2)CC1` [Example 113P, N-[trans-4-(1-acetamido-1-methylethyl)cyclohexyl]-6-(3-fluorophenyl)nicotinamide], 8.04.

As for `O=C(N[C@@H]1CCC[C@H](CNC(=O)[C@@H]2CCCN2)C1)c1ccc(-c2cccc(F)c2)nc1` [Example 259], the pIC50 was 7.36. With `O=C(N[C@@H]1CCC[C@H](CO)C1)c1ccc(-c2cccc(F)c2)nc1` (relative stereo) [Example 251A] the figure was 7.88; with `C[C@@H](N)C(=O)N[C@H]1CC[C@H](NC(=O)c2ccc(-c3cccc(F)c3)nc2)CC1` [Example 113Q, N-[trans-4-(D-alanylamino)cyclohexyl]-6-(3-fluorophenyl)nicotinamide], 8.01. For `COCCNC(=O)[C@@H]1CCC[C@@H](NC(=O)c2ccc(-c3cccc(F)c3)nc2)C1` (relative stereo) [Example 240], the pIC50 was 7.58.

As to `O=C(NC12CC(C1)C2)c1ccc(-c2cccc(F)c2)nc1` [Example 125, N-Bicyclo[1.1.1]pent-1-yl-6-(3-fluorophenyl)nicotinamide], the pIC50 was 8.18. For `CC(C)n1ncc2c1CCCC2NC(=O)c1ccc(-c2cccc(F)c2)nc1` (stereo not drawn) [Example 129, 6-(3-Fluorophenyl)-N-(1-isopropyl-4,5,6,7-tetrahydro-1H-indazol-4-yl)nicotinamide], the pIC50 is 6.71. As for `O=C(N[C@H]1CC[C@H](C(=O)N[C@H]2CCNC2=O)CC1)c1ccc(-c2cccc(F)c2)nc1` [Example 113C, 6-(3-fluorophenyl)-N-(trans-4-{[(3S)-2-oxopyrrolidin-3-yl]carbamoyl}cyclohexyl)nicotinamide], the figure is 8.13; as for “6-(3-Fluorophenyl)-N-(cis-2-hydroxy-2,3-dihydro-1H-inden-1yl]nicotinamide [Example 130]”, 7.82. As for `CN[C@H]1CC[C@H](NC(=O)[C@@H]2CCC[C@H](NC(=O)c3ccc(-c4cccc(F)c4)nc3)C2)CC1` (stereo in doubt) [Example 193, 6-(3-Fluorophenyl)-N-[(1S,3R)-3-{[trans-4-(methylamino)cyclohexyl]carbamoyl}cyclohexyl]nicotinamide], the figure is 7.99. With `O=C(N[C@H]1CC[C@@H](C(=O)N2CCOCC2)C1)c1ccc(-c2cccc(F)c2)nc1` [Example 170, 6-(3-Fluorophenyl)-N-[(1S,3R)-3-(morpholin-4-ylcarbonyl)cyclopentyl]nicotinamide] the figure was 8.37; with `N[C@H]1CCCC[C@H]1NC(=O)[C@H]1CC[C@H](NC(=O)c2ccc(-c3cccc(F)c3)nc2)CC1` [Example 113D, N-(trans-4-{[(1R,2S)-2-aminocyclohexyl]carbamoyl}cyclohexyl)-6-(3-fluorophenyl)nicotinamide], 7.97.

As for `C[C@H](N)C(=O)N[C@H]1CC[C@H](NC(=O)c2ccc(-c3cccc(F)c3)nc2)CC1` [Example 113R, N-[trans-4-(L-alanylamino)cyclohexyl]-6-(3-fluorophenyl)nicotinamide], the pIC50 is 7.86.

On to `O=C(NC1CCC(O)(CN2CCCCC2)CC1)c1ccc(-c2cccc(F)c2)nc1` (stereo not drawn) [Example 153, 6-(3-Fluorophenyl)-N-(4-hydroxy-piperidin-1-ylmethylcyclohexyl)nicotinamide], for which the pIC50 was 7.88.

The record behind these values is patent US20100173888A1 (Pfizer Inc, priority 2008, published 2010).
